The values below come from patent US7456205B2, “Benzopyran compounds, process for preparing the same and their use” (Shanghai Institute of Materia Medica, Chinese Academy of …, priority 2003, dated 2008).

The test system of one data set is 3T3-L1 cells. In words: Insulin-sensitizing activity in 3T3-L1 preadipocyte model, triglyceride accumulation as indication of cell differentiation. The data set is classed as cell-based. The settings on record: for The Percentage of Triglyceride Increased in 3T3-L1 Cells: with IBMX, DEX and insulin, average of 3 pores (rosiglitazone n = 22, mean ± SD); for insulin-sensitizing activity: verbal summary of Table 2. As to the method:
The insulin-sensitizing agents can promote the differentiation of pre-adipocytes toward adipocyte. Thus insulin-sensitizing agents could be identified with the insex of the differentiation of pre-adipocytes. Following the methods reported in the literature [Kletzein B F. Mol. Pharm. 1991, 41, 393], the insulin-sensitizing activities of the compounds of formula (I) of the present invention were evaluated in 3T3-L1 preadipocyte model with triglyceride accumulation in cells as the indication of cell differentiation.
The 3T3-L1 cells were incubated in DMEM (Dulbecco's Modified Eagle's Medium) containing 10% NBS (newborn calf serum) and subcultured every 3 days. The cells were transferred to 24-pore plates, and after the pores were filled completely, the cells were treated with IBMX (isobutylmethylxanthine) (0.5 mmol/L), DEX (dexamethasone) (1 μmol/L) and insulin (1.0 μmol/L) for 48 h, meanwhile different amounts of test compounds were added into. The cells were incubated continuously until the end of the experiment. Cells were collected and the contents of triglyceride and protein therein were determined by colorimetry. Enhancements of triglyceride in cells after drug-administrating were calculated.
The positive control group was rosiglitazone, and the solvent control group was a culturing medium containing 0.1% of DMSO. […] Thus, the derivatives of the benzopyran compounds of the present invention can be used to control the blood glucose level in type II diabetes patients and inhibit the occurrence of complications caused by the type II diabetes.

As a reminder, the melting point is the temperature, or range, at which the solid turns liquid. Compound `COC(=O)c1cc2ccc(OCc3ccccc3)cc2oc1=O` [Compound 1, 7-benzyloxyl-2-oxo-2H-1-benzopyran-3-carboxylic acid methyl ester] had a melting point of 129 to 130 °C. The “The Percentage of Triglyceride Increased in 3T3-L1 Cells” value in the data set with 3T3-L1 cells (test compound 0.01 μmol/L) is listed as −5.73%. The “The Percentage of Triglyceride Increased in 3T3-L1 Cells” value in the data set with 3T3-L1 cells (test compound 0.1 μmol/L) is reported as −0.43%. Also, the “The Percentage of Triglyceride Increased in 3T3-L1 Cells” value in the data set on 3T3-L1 cells (test compound 1 μmol/L) is 7.93%.
On to `O=C(O)c1cc2ccc(OCc3ccccc3)cc2oc1=O` [Compound 2, 7-benzyloxyl-2-oxo-2H-1-benzopyran-3-carboxylic acid], for which the figures for the “The Percentage of Triglyceride Increased in 3T3-L1 Cells” value in the data set on 3T3-L1 cells (test compound 0.01 μmol/L), in the data set with 3T3-L1 cells (test compound 0.1 μmol/L) and in the data set with 3T3-L1 cells (test compound 1 μmol/L) were 20.86%, 18.31% and 14.63%, respectively.
In the case of `COC(=O)c1cc2ccc(OCCc3ccccc3)cc2oc1=O` [Compound 3, 7-(2-phenyl)ethoxyl-2-oxo-2H-1-benzopyran-3-carboxylic acid methyl ester], the melting point was 100 to 101 °C. In addition, the “The Percentage of Triglyceride Increased in 3T3-L1 Cells” value in the data set on 3T3-L1 cells (test compound 0.01 μmol/L) is given as 4.57%. In addition, the “The Percentage of Triglyceride Increased in 3T3-L1 Cells” value in the data set on 3T3-L1 cells (test compound 0.1 μmol/L) is reported as −2.61%. Besides, in the data set on 3T3-L1 cells (test compound 1 μmol/L), the “The Percentage of Triglyceride Increased in 3T3-L1 Cells” value is given as −5.50%.
With `CCc1ccc(CCOc2ccc3cc(C(=O)OC)c(=O)oc3c2)nc1` [Compound 4, 7-[2-(5-ethyl-2-pyridine)ethyoxyl]-2-oxo-2H-1-benzopyran-3-carboxylic acid methyl ester], the entries for the “The Percentage of Triglyceride Increased in 3T3-L1 Cells” value with 3T3-L1 cells (test compound 0.01 μmol/L), in the data set with 3T3-L1 cells (test compound 0.1 μmol/L) and in the data set on 3T3-L1 cells (test compound 1 μmol/L) were 7.26%, 11.55% and 17.71%, respectively.
Regarding `COC(=O)c1cc2ccc(OCCn3ccc4ccccc43)cc2oc1=O` [Compound 5, 7-[2-(1-indole)ethoxyl]-2-oxo-2H-1-benzopyran-3-carboxylic acid methyl ester], the “The Percentage of Triglyceride Increased in 3T3-L1 Cells” value in the data set on 3T3-L1 cells (test compound 0.01 μmol/L) is reported as 7.88%; in the data set with 3T3-L1 cells (test compound 0.1 μmol/L), 27.58%; with 3T3-L1 cells (test compound 1 μmol/L), 34.74%.
For the compound `COC(=O)c1cc2ccc(OCCc3nc(-c4ccccc4)oc3C)cc2oc1=O` [Compound 6, 7-[2-(5-methyl-2-phenyl-4-oxazole)ethoxyl]-2-oxo-2H-1-benzopyran-3-carboxylic acid methyl ester], the figures for the “The Percentage of Triglyceride Increased in 3T3-L1 Cells” value in the data set with 3T3-L1 cells (test compound 0.01 μmol/L), with 3T3-L1 cells (test compound 0.1 μmol/L) and in the data set with 3T3-L1 cells (test compound 1 μmol/L) were 27.04%, 67.24% and 52.45%, respectively. In addition, in the data set on 3T3-L1 cells, the insulin-sensitizing activity entry is “stronger insulin-sensitizing activity”.
As to `O=C(O)c1cc2ccc(OCCc3ccccc3)cc2oc1=O` [Compound 7, 7-(2-phenyl)ethoxyl-2-oxo-2H-1-benzopyran-3-carboxylic acid], the “The Percentage of Triglyceride Increased in 3T3-L1 Cells” value with 3T3-L1 cells (test compound 0.01 μmol/L) is recorded as 7.97%; in the data set on 3T3-L1 cells (test compound 0.1 μmol/L), −1.10%; in the data set with 3T3-L1 cells (test compound 1 μmol/L) it was −6.29%.
For `CCc1ccc(CCOc2ccc3cc(C(=O)O)c(=O)oc3c2)nc1` [Compound 8, 7-[2-(5-ethyl-2-pyridine)ethyoxyl]-2-oxo-2H-1-benzopyran-3-carboxylic acid] the same measures were 12.25%, 3.67% and 5.66%.
As for `O=C(O)c1cc2ccc(OCCn3ccc4ccccc43)cc2oc1=O` [Compound 9, 7-[2-(1-indole)ethoxyl]-2-oxo-2H-1-benzopyran-3-carboxylic acid], the “The Percentage of Triglyceride Increased in 3T3-L1 Cells” value is −5.25% with 3T3-L1 cells (test compound 0.01 μmol/L), −8.42% in the data set with 3T3-L1 cells (test compound 0.1 μmol/L) and −12.95% with 3T3-L1 cells (test compound 1 μmol/L).
For `Cc1oc(-c2ccccc2)nc1CCOc1ccc2cc(C(=O)O)c(=O)oc2c1` [Compound 10, 7-[2-(5-methyl-2-phenyl-4-oxazole)ethoxyl]-2-oxo-2H-1-benzopyran-3-carboxylic acid] the same measures were −3.28%, 26.68% and 32.30%.
Turning to `COC(=O)C1Cc2ccc(OCCc3ccccc3)cc2OC1=O` (centres unmarked) [Compound 11, 7-(2-phenyl)ethoxyl-3,4-dihydro-2-oxo-4H-1-benzopyran-3-carboxylic acid methyl ester], the “The Percentage of Triglyceride Increased in 3T3-L1 Cells” value is listed as −9.13% in the data set with 3T3-L1 cells (test compound 0.01 μmol/L), 12.90% with 3T3-L1 cells (test compound 0.1 μmol/L) and 14.10% in the data set on 3T3-L1 cells (test compound 1 μmol/L).
Regarding `CCc1ccc(CCOc2ccc3c(c2)OC(=O)C(C(=O)OC)C3)nc1` (centres unmarked) [Compound 12, 7-[2-(5-ethyl-2-pyridine)ethyoxyl]-3,4-dihydro-2-oxo-4H-1-benzopyran-3-carboxylic acid methyl ester], the “The Percentage of Triglyceride Increased in 3T3-L1 Cells” value with 3T3-L1 cells (test compound 0.01 μmol/L) is 4.13%; in the data set on 3T3-L1 cells (test compound 0.1 μmol/L) it was −2.40%; in the data set with 3T3-L1 cells (test compound 1 μmol/L) it was 2.53%.
As for `COC(=O)C1Cc2ccc(OCCc3nc(-c4ccccc4)oc3C)cc2OC1=O` (centres unmarked) [Compound 13, 7-[2-(5-methyl-2-phenyl-4-oxazole)ethoxyl]-3,4-dihydro-2-oxo-4H-1-benzopyran-3-carboxylic acid methyl ester], the “The Percentage of Triglyceride Increased in 3T3-L1 Cells” value in the data set on 3T3-L1 cells (test compound 0.01 μmol/L) stood at 28.33%; in the data set on 3T3-L1 cells (test compound 0.1 μmol/L), 52.92%; in the data set with 3T3-L1 cells (test compound 1 μmol/L), 64.69%. For the same compound, the insulin-sensitizing activity result in the data set with 3T3-L1 cells is on record as “stronger insulin-sensitizing activity”.
With `COC(=O)C1Cc2ccc(OCc3ccc(C(F)(F)F)cc3)cc2OC1=O` (centres unmarked) [Compound 14, 7-(4-trifluoromethylbenzyloxyl)-3,4-dihydro-2-oxo-4H-1-benzopyran-3-carboxylic acid methyl ester], the figures for the “The Percentage of Triglyceride Increased in 3T3-L1 Cells” value in the data set with 3T3-L1 cells (test compound 0.01 μmol/L), with 3T3-L1 cells (test compound 0.1 μmol/L) and in the data set with 3T3-L1 cells (test compound 1 μmol/L) were 19.33%, −16.81% and −2.69%, respectively.
For `COC(=O)c1cc2ccc(OCCN(C)C(=O)OC(C)(C)C)cc2oc1=O` [Compound 15, 7-[2-(N-tert-butoxycarbonyl-N-methylamino)ethoxyl]-2-oxo-2H-1-benzopyran-3-carboxylic acid methyl ester], the melting point is 128 to 129 °C. Further, in the data set on 3T3-L1 cells (test compound 0.01 μmol/L), the “The Percentage of Triglyceride Increased in 3T3-L1 Cells” value was found to be 26.38%. In the data set on 3T3-L1 cells (test compound 0.1 μmol/L), the “The Percentage of Triglyceride Increased in 3T3-L1 Cells” value worked out at 26.73%. In addition, the “The Percentage of Triglyceride Increased in 3T3-L1 Cells” value with 3T3-L1 cells (test compound 1 μmol/L) is listed as 44.70%.
In turn, `COC(=O)C1Cc2ccc(OCCN(C)c3nc4ccccc4o3)cc2OC1=O` (centres unmarked) [Compound 16, 7-[2-[N-methyl-N-(2-benzoxazole)amino]ethoxyl]-3,4-dihydro-2-oxo-4H-1-benzopyran-3-carboxylic acid methyl ester] had a melting point of 88 to 90 °C. Besides, in the data set with 3T3-L1 cells (test compound 0.01 μmol/L), the “The Percentage of Triglyceride Increased in 3T3-L1 Cells” value is reported as 11.01%. Moreover, in the data set with 3T3-L1 cells (test compound 0.1 μmol/L), the “The Percentage of Triglyceride Increased in 3T3-L1 Cells” value came to 29.32%. Further, in the data set on 3T3-L1 cells (test compound 1 μmol/L), the “The Percentage of Triglyceride Increased in 3T3-L1 Cells” value is recorded as 25.09%.
For `Cc1oc(-c2ccccc2)nc1CCOc1ccc2cc(C(=O)OC(C)(C)C)c(=O)oc2c1` [Compound 17, 7-[2-(5-methyl-2-phenyl-4-oxazole)ethoxyl]-2-oxo-2H-1-benzopyran-3-carboxylic acid tert-butyl ester], the “The Percentage of Triglyceride Increased in 3T3-L1 Cells” value in the data set on 3T3-L1 cells (test compound 0.01 μmol/L) is 18.33%; in the data set with 3T3-L1 cells (test compound 0.1 μmol/L) it was 28.20%; in the data set on 3T3-L1 cells (test compound 1 μmol/L), 33.01%. Moreover, the insulin-sensitizing activity entry in the data set with 3T3-L1 cells is “stronger insulin-sensitizing activity”.
For the compound `Cc1oc(-c2ccccc2)nc1CCOc1ccc2c(c1)OC(=O)C(C(=O)O)C2` (centres unmarked) [Compound 18, 7-[2-(5-methyl-2-phenyl-4-oxazole)ethoxyl]-3,4-dihydro-2-oxo-4H-1-benzopyran-3-carboxylic acid], the “The Percentage of Triglyceride Increased in 3T3-L1 Cells” value in the data set on 3T3-L1 cells (test compound 0.01 μmol/L) came to 18.65%; in the data set with 3T3-L1 cells (test compound 0.1 μmol/L) it was 29.28%; in the data set on 3T3-L1 cells (test compound 1 μmol/L) it was 30.24%. Also, in the data set with 3T3-L1 cells, the insulin-sensitizing activity entry was “stronger insulin-sensitizing activity”.
